Assay results from EP0247482A2, “Hardened reagent coatings, and processes for the preparation thereof” (priority 1986, dated 1987).

Tested on: casein
Conditions: pH 7
Protocol: A 10 % strength casein solution is prepared in water by adding sodium hydroxide solution. 0.1 g of tartrazine is added to 100 ml of solution as filter dyestuff. Before pouring, various samples of the solution of 3 % by weight of each of the compounds 22, 19, 20, 21, 24, 25, 30, 31, 37, 41, 44, 45, 50, 52, 53, 55 and 56, dissolved in water, are added at a pH of 7.

Structure (SMILES) | hardened filter foils, solubility in alkaline water after drying
O=C(N1CCCCC1)[n+]1ccc(CCS(=O)(=O)[O-])cc1 [Compound 53] | no longer dissolve in alkaline water
O=C(N1CCOCC1)[n+]1cccc(CCS(=O)(=O)[O-])c1 [Compound 56] | no longer dissolve in alkaline water
O=C(N1CCOCC1)[n+]1cccc(S(=O)(=O)[O-])c1 [Compound 45] | no longer dissolve in alkaline water
Cc1ccc(N(C)C(=O)[n+]2ccc(CCS(=O)(=O)[O-])cc2)cc1 [Compound 52] | no longer dissolve in alkaline water
NC(=O)c1ccc[n+](C(=O)N2CCOCC2)c1 [Compound 19] | no longer dissolve in alkaline water
O=C(N1CCOCC1)[n+]1ccc(CCS(=O)(=O)[O-])cc1 [Compound 55] | no longer dissolve in alkaline water
CCN(CC)C(=O)[n+]1ccc(CCS(=O)(=O)[O-])cc1 [Compound 50] | no longer dissolve in alkaline water
